Measurements as given in US7468449B2, “Phenyl-furan compounds as vitamin D receptor modulators” (Eli Lilly and Company, priority 2003, dated 2008).
Several values for one entry are separate records, joined by “and”; a condition that tells them apart may be missing. Equal values may be shown once. Read-outs that look alike come from different tables or passages of the source.

How the values were obtained:
rat osteocalcin promoter = assay: OCN (osteocalcin) promoter assay; format: cell-based; conditions: RG-15 (ROS 17/2.8) cells, 48 hr treatment, Table 1
Method: 3. The OCN (osteocalcin) Promoter Assay
The OCN Promoter Assay is an indicator and marker for osteoporosis. […] Preferred assay results are less than 50 nM.
(3) Materials and Method for The OCN Promoter Assay:
The activation of osteocalcin by VDR ligands was evaluated in a rat osteoblast-like cell line RG-15 (ROS 17/2.8) stably expressing rat osteocalcin promoter fused with luciferase reporter gene. […] After 24 hr, cells (in DMEM/F-12 medium +2% FBS) were treated with various concentrations of compounds, dissolved in DMSO. The final DMSO concentration remained at 0.01% (v/v). After 48 hr treatment, the medium was removed, cells were lysed with 50 μl of lysis buffer (From Luciferase reporter assay system, Roche Diagnostics, Indianapolis, Ind.) and assayed for luciferase activity using the Luciferase Reporter Gene Assay kit from Boehringer Mannheim as per manufacturer's specifications.

IL-10 = IL-10 induction assay in PBMCs; format: cell-based; conditions: TPA/PHA stimulated human PBMCs
Source text: 6. The IL-10 induction Assay
This is an in vitro efficacy assay for psoriasis, abscess and adhesion. Psoriasis involves both keratinocytes and immune cells. IL-10 is a unique cytokine because it is anti-inflammatory and immunosuppressive. This assay tells us whether a VDRM is able to function as an agonist in PBMCs ([…]) or not.
(6) Materials and Method for human IL-10 Induction Assay: […]

VDR = biological target: T1, VDR (Homo sapiens, UniProt P11473); assay: VDR CTF (Caco-2 cell co-transfection) assay; format: cell-based; conditions: Caco-2 cells, Gal-4-VDR-LBD co-transfection; Table 1
T1 construct: the receptor expression vector pGal-4-VDR-LBD (10 ng); expressed in transfected cells; host or cells: Caco-2 cells
T1 sequence (P11473 127-423 limits assumed): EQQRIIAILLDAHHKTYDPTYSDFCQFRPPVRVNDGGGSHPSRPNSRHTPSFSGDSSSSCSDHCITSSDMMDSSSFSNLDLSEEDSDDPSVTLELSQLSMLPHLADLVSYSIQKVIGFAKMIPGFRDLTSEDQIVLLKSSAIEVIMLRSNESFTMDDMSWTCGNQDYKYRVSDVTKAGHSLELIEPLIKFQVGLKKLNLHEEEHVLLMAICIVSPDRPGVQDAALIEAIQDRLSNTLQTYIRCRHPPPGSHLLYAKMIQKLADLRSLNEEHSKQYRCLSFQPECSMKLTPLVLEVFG
Method: 2. The Caco-2 Cell Co-transfection Assay:
The Caco-2 cell assay is an indicator for the undesirable condition of hypercalcemia. This co-transfection assay is a surrogate assay for in vivo calcemic activity of VDR ligands. […] Preferred assay results are greater than 1000 nM.
(§1) Step 4: FuGENE, DNA and Media Complex to-well plate • Add FuGENE-DNA-Media complex from step 3 to each plate • Incubate. […] Day 4: Luciferase Assay • Read the plates after drug treatment • Remove part of media from all the wells and leave remainder • Add Steady-Glo Luciferase Reagent mixture/wells • Incubate • Count each well using a Luminescence counter, Top Count NXT by Packard Set a delay between plates to reduce the background. (2) Materials and Method for The Caco-2 Cell Assay:
Caco-2 cells, grown in phenol red free, DMEM (Invitrogen, Carlsbad, Calif.) containing 10% charcoal-stripped FCS (Hyclone, Logan, Utah), were transfected with Fugene 6 reagent (Roche Diagnostics, Indianapolis, Ind.). Cells (5000/well) were plated 18 h before transfection in a 96 well plate. The Cells were transfected with Gal-4-responsive reporter pFRLuc (150 ng, Stratagene, La Jolla Calif.) and the receptor expression vector pGal-4-VDR-LBD (10 ng), along with Fugene 6 reagent (0.2 μl/well). The DNA-Fugene complex was formed by incubating the mixture for 30 min at room temperature. The cells were transfected in triplicate for 5 h, and treated with various concentrations of VDR ligands (form 0.01 nM to 10,000 nM concentration range) 18 h post-transfection. The luciferase activity was quantified using Steady-Glo reagent kit (Promega, Madison, Wis.) as per manufacturer's specifications.

RXR-VDR heterodimer = biological target: T2, RXR-VDR heterodimer (Homo sapiens, UniProt P11473); assay: RXR-VDR heterodimerization assay (SaOS-2 cells); format: cell-based; conditions: luciferase reporter, Table 1
T2 construct: Add the Gal-4-RXR-DEF and VP16-VDR-LBD; expressed in transfected cells; host or cells: SaOs-2 cells
T2 sequence (P11473 127-423 limits assumed): T1 sequence (P11473 127-423 limits assumed)
T2 sequence (P19793 201-462 partner limits assumed): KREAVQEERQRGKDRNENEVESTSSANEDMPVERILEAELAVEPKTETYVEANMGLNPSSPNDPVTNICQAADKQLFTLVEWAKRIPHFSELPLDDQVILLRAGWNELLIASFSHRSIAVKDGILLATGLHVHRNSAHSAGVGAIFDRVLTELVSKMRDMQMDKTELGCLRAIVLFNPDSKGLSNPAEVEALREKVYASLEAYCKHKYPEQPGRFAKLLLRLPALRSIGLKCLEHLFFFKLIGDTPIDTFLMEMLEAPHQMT
Source text: 1. The RXR-VDR Heterodimer Assay:
This assay provides the VDR activity of a test compound.
(1) Materials and Method for RXR-VDR Heterodimerization Assay:
Transfection/Treatment Media: • D-MEM Low Glucose Without Phenol Red only
Flat well Plates: • Use well plate to plate cells • Use Deep well plate sterile to make up treatment media.
Luciferase Assay Reagent: • Use Steady-Glo Luciferase Reagent from Promega (Cat #E2550) Consists of: • a. E2533 Assay Substrate, lyopholized product and • b. E2543 Assay Buffer. • Thaw at room temperature • Store Day 1: Cell Plating: • Cell Harvesting • Aspirate media from culture flask, rinse cells with HBSS and aspirate. • Add trypsin and incubate. • When cells appear detached, resuspend cells in growth media. • Transfer into a new flask with fresh growth media for passaging the cells. • Plate well plates and two extra plates A. Cell Count • Mix the cell suspension using pipette • Use Hematocytometer to count the cells • Load cell suspension onto the hemocytometer chamber • Count cells.
Step 1: DNA and Media • Add plain DMEM media to tubes for mixing the DNA • Add the Reporter gene pFR-LUC • Add the Gal-4-RXR-DEF and VP16-VDR-LBD
Step 2: FuGENE and Media • Prepare plain DMEM media in a ubes for mixing PuGENE • Add FuGENE 6 Transection Reagent • Incubate
Step 3: FuGENE, DNA and Media Complex • Add FuGENE Media complex from step 2 to DNA Media complex from step1 • Incubate
as §1, with “Assay: […]” for “Assay:”

KERtr cells = assay: Keratinocyte proliferation assay; format: cell-based, Human; conditions: BrdU incorporation
Method: 5. The Keratinocyte Proliferation Assay
This Assay is indicative for the treatment of psoriasis.
(5) The Keratinocyte Proliferation Assay:
KERtr cells (Human skin keratinocyte transformed with a retrovirus vector, obtained from ATCC) were plated in 96-well flat-bottomed plates (3000 cells/well) in 100 μl keratinocyte serum free medium supplemented with bovine pituitary extract in the absence of EGF (Life Technologies, Rockville, Md.) and incubated at 37° C. for two days. The cells were treated with various concentrations of VDR ligands (ten-fold serial dilution from 10,000 nM to 0.1 nM in triplicate), dissolved in 100 μl keratinocyte serum free medium supplemented with bovine pituitary extract in the absence of EGF and incubated at 37° C. for 72 hr. […] Potency values (IC50) values were determined as the concentration (nM) of compound that elicited a half-maximal response.

[1] = Mouse hypercalcemia assay; conditions: six day hypercalcemia test, oral gavage, serum ionized calcium; Table 1
Method: The Mouse Hypercalcemia Assay
(§2) The Mouse Hypercalcemia Assay is a six day hypercalcemia test for toxicity and selectivity. Acceptable test results are levels greater than 300 μg/kg/day. Preferred assay results are levels greater than 1000 μg/kg/day.
(§3) (4) Materials and Method for The Mouse Hypercalcemia Assay:
(§4) Weanling, virus-antibody-free, five to six weeks old female DBF mice (Harlan, Indianapolis, Ind.) are used for all the studies. Animals are allowed to acclimate to local vivarium conditions for 2 days. […] The animals then are divided into groups with 4-5 mice per group. Different doses of test compounds prepared in 10% Ethanol and 90% sesame oil are administered to mice orally via gavage for 6 days. 1α-25(OH)2D3 0.5 μg/kg/d was also given to one group of mice as the positive control. […] Raw data of group differences is assessed by analysis of variance (ANOVA) using Fisher's protected least significant difference (PLSD) where the significance level was P<0.05.

[2] = in vivo, po
Method: The Mouse Hypercalcemia Assay
as §2, §3, §4

[3] = 72 hr, Table 2, read-out: Kera. Prolif. IC50

Structure (SMILES)	EC50 (rat osteocalcin promoter) [nM]	IC50 (IL-10; Table 2) [nM]	EC50 (VDR) [nM]	EC50 (RXR-VDR heterodimer)	IC50 (KERtr cells; [3]) [nM]	Mouse Hypercal [1] [µg/kg/day]	Mouse Hypercal [2] [µg/kg/day]	EC50 (rat osteocalcin promoter; Rattus norvegicus, 48 h) [nM]	IC50 (KERtr cells; Homo sapiens, Keratinocyte, 72 h, Table 2, read-out: Kera. Prolif. IC50) [nM]	IC50 (IL-10; PBMC, Table 4 comparison compounds) [nM]	IC50 (KERtr cells; Homo sapiens, Keratinocyte, 72 h, Table 4 comparison compounds, read-out: Kera. Prolif. IC50) [nM]
CCc1cc(C(CC)(CC)c2ccc(C(=O)N(C)OC)o2)ccc1OCC(O)C(C)(C)C (single isomer, unassigned; enantiomer 1) [Ex. 13, 3′-[4-(2-hydroxy-3,3-dimethyl-butoxy)-3-ethylphenyl]-3′-[5-N-methoxy-N-methylamino-carbonyl-2-furanyl]pentane enantiomer 1]	20	4.6	572	18 nM	18	>3000	–	–	–	–	–
CCc1cc(C(CC)(CC)c2ccc(C(=O)N(C)C)o2)ccc1OCC(O)C(C)(C)C (single isomer, unassigned; enantiomer 2) [Ex. 11, 3′-[4-(2-hydroxy-3,3-dimethyl-butoxy)-3-ethylphenyl]-3′-[5-dimethylaminocarbonyl-2-furanyl]pentane enantiomer 2]	20	–	572	17.6 nM	18	>3000	–	–	–	–	–
C=C1/C(=C\C=C2/CCC[C@]3(C)[C@@H]([C@H](C)CCCC(C)(C)O)CC[C@@H]23)C[C@@H](O)C[C@@H]1O [AA, 1α,25-dihydroxyvitamin D3]	–	–	–	–	–	–	0.06	–	–	–	–
CCC(CC)(c1ccc(OCC(=O)C(C)(C)C)c(C)c1)c1ccc(C(=O)N(C)C)o1 [Ex. 1, 3′-[4-(2-oxo-3,3-dimethylbutoxy)-3-methylphenyl]-3′-[5-dimethylaminocarbonyl-2-furanyl]pentane]	3	–	191	3.3 nM and 0.6 nM	–	>1500	–	5	15	–	–
CCN(C)C(=O)c1ccc(C(CC)(CC)c2ccc(OCC(O)C(C)(C)C)c(C)c2)o1 (stereo not drawn) [Ex. 9, 3′-[4-(2-hydroxy-3,3-dimethyl-butoxy)-3-methylphenyl]-3′-[5-N-ethyl-N-methylamino-carbonyl-2-furanyl]pentane]	30	–	616	16 nM	28	–	–	–	–	–	–
C=C1/C(=C\C=C2/CCC[C@]3(C)[C@@H]([C@H](C)/C=C/[C@@H](O)C4CC4)CC[C@@H]23)C[C@@H](O)C[C@@H]1O [FF, calcipotriol, reference compound]	–	–	–	–	–	–	–	–	–	0.5	103
